{
  "source": "patent US4883649A",
  "about": "(The University of Michigan, priority 1988, dated 1989)",
  "key": {"[1]": {"tested_on": "bulbar sympathetic cardioaccelerator and sympathetic vasoconstrictor centers", "conditions": "in vivo; cited from earlier work"}, "[2]": {"tested_on": "peripheral α-adrenergic receptors", "conditions": "used as an antihypertensive; initial stimulation of peripheral α-adrenergic receptors; cited from earlier work"}, "[3]": {"tested_on": "α2-adrenergic receptor sites", "conditions": "cited from earlier work"}, "[4]": {"tested_on": "α2-receptor sites", "conditions": "central nervous system; cited from earlier work"}, "[5]": {"tested_on": "heart", "conditions": "in vivo; cited from earlier work"}, "[6]": {"tested_on": "choroid of the eye", "conditions": "rats; clonidine hydrochloride; cited from earlier work"}, "[7]": {"conditions": "patient; cited from earlier work"}, "[8]": {"molecular_target": "T1, α2-adrenergic receptor (Homo sapiens, UniProt P08913)", "T1 sequence (P08913 1-465)": "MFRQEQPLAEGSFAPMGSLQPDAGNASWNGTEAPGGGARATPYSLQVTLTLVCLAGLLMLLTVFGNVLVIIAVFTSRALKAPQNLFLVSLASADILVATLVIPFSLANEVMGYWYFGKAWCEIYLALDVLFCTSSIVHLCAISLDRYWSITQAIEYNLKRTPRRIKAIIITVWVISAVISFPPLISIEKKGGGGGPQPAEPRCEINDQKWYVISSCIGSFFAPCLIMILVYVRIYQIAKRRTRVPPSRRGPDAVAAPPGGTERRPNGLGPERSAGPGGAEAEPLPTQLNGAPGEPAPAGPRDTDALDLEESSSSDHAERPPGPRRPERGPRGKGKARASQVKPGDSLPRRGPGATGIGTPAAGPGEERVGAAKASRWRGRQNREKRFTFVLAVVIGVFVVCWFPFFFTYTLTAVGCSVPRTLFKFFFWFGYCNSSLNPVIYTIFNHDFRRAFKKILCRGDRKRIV", "conditions": "human platelet membranes, comparison with other drugs", "method": "(§1) Human platelet plasma membranes were prepared by sonication of human platelet concentrates (Red Cross) followed by centrifugation on a discontinuous sucrose gradient (14%/34% by weight) for 3 hours at 140,000 x g. The membrane fraction was collected from the interface of the heavy and light sucrose, and will be herein designated as purified platelet plasma membrane (PPM).\n(§2) Bound radioactivity was measured by scintillation counting of the GF/C filter in OCF scintillation cocktail (Amerscham) on a Beckman LR 8100 scintillation counter.\n(§3) IC50 is the concentration of compound which reduces binding to 50% of the initial value."}, "[9]": {"molecular_target": "T1, α2-adrenergic receptor", "assay": "biochemical", "method": "as §1, §2, §3"}},
  "note": "“Also recorded” adds a separate entry of the source. Counter-ions that a name gives are not always drawn. Like-named read-outs stand apart in the source and are kept apart here.",
  "data": [
    {"smiles": "Clc1cccc(Cl)c1N=C1NCCN1", "note": "[Clonidine, 2-(2,6-dichlorophenylamine)-2-imidazoline]", "values": [
      {"measurement": "sympathetic outflow from the brain", "setting": "[1]", "result": "decrease in sympathetic outflow from the brain"},
      {"measurement": "initial vascular effect", "setting": "[2]", "result": "transient vasoconstriction"},
      {"measurement": "binding site specificity", "setting": "[3]", "result": "binds preferentially to α2 -adrenergic receptor sites"},
      {"measurement": "response to activation of α2-receptor sites", "setting": "[4]", "result": "response similar to norepinephrine in the central nervous system"},
      {"measurement": "tissue localization", "setting": "[5]", "result": "known to localize in the heart"}
    ]},
    {"smiles": "Clc1cccc(Cl)c1N=C1NCCN1", "note": "[clonidine hydrochloride]", "values": [
      {"measurement": "buildup in the choroid of the eye", "setting": "[6]", "result": "significant buildup of clonidine occurs in the choroid of the eye"},
      {"measurement": "retinal degeneration", "setting": "[6]", "result": "possibility of retinal degeneration"},
      {"measurement": "route of excretion of drug and metabolites", "setting": "[7]", "result": "leave the patient primarily through urinary discharge"}
    ]},
    {"smiles": "Clc1cc(I)cc(Cl)c1N=C1NCCN1", "note": "[p-Iodoclonidine, 2-(2,6-dichloro-4-iodophenylimino-2)imidazolidine]", "values": [
      {"measurement": "relative affinity / potency in competition for α2-adrenergic receptor sites, in words", "setting": "[8]", "result": "greater affinity for the receptor than clonidine"},
      {"measurement": "relative affinity / potency in competition for α2-adrenergic receptor sites, in words", "setting": "[8]; listed as p-iodoclonidine", "result": "more potent than either p-aminoclonidine or clonidine in competition for α2 -adrenergic receptor sites; also recorded: more potent (IC50 =1.3) than clonidine, p-aminoclonidine, or yohimbine; also recorded: binds better than epinephrine"},
      {"measurement": "IC50", "setting": "[9]", "result": 1.3, "unit": "nM"}
    ]}
  ]
}
